Reference: the kinase profiling compilation of Christmann-Franck et al. (2016)

How the values were obtained:
Assay in all cases: radiometric filter-binding kinase assay, Kinase HotSpot
Details in all cases: compound 0.5 µM; ATP 10 µM
[1] = biological target: MARK1 (human) (UniProt Q9P0L2)
[2] = biological target: CDK9 CCNK (human) (UniProt O75909+P50750)
[3] = biological target: PRKCE (human) (UniProt Q02156)
[4] = biological target: CDK5 CDK5R1 p25 (human) (UniProt Q00535+Q15078)
[5] = biological target: PRKCI (human) (UniProt P41743)
[6] = biological target: DSTYK (human) (UniProt Q6XUX3)
[7] = biological target: CDC42BPB (human) (UniProt Q9Y5S2)
[8] = biological target: MAP3K2 (human) (UniProt Q9Y2U5)
[9] = biological target: GRK7 (human) (UniProt Q8WTQ7)
[10] = biological target: SGK2 (human) (UniProt Q9HBY8)
[11] = biological target: CDC42BPA (human) (UniProt Q5VT25)
[12] = biological target: SGK3 (human) (UniProt Q96BR1)
[13] = biological target: CSK (human) (UniProt P41240)
[14] = biological target: ITK (human) (UniProt Q08881)
[15] = biological target: ABL2 (human) (UniProt P42684)
[16] = biological target: PRKCG (human) (UniProt P05129)
[17] = biological target: EPHA1 (human) (UniProt P21709)
[18] = biological target: ADRBK2 (human) (UniProt P35626)
[19] = biological target: LRRK2 (human) (UniProt Q5S007)
[20] = biological target: STK10 (human) (UniProt O94804)
[21] = biological target: MATK (human) (UniProt P42679)
[22] = biological target: CAMKK1 (human) (UniProt Q8N5S9)
[23] = biological target: TAOK3 (human) (UniProt Q9H2K8)
[24] = biological target: YES1 (human) (UniProt P07947)
[25] = biological target: ZAP70 (human) (UniProt P43403)
[26] = biological target: MYLK (human) (UniProt Q15746)
[27] = biological target: FLT1 (human) (UniProt P17948)
[28] = biological target: PAK6 (human) (UniProt Q9NQU5)
[29] = biological target: PLK3 (human) (UniProt Q9H4B4)
[30] = biological target: MLTK (human) (UniProt Q9NYL2)
[31] = biological target: ADRBK1 (human) (UniProt P25098)
[32] = biological target: PAK4 (human) (UniProt O96013)
[33] = biological target: PRKCD (human) (UniProt Q05655)
[34] = biological target: MARK4 (human) (UniProt Q96L34)
[35] = biological target: BMX (human) (UniProt P51813)
[36] = biological target: FGR (human) (UniProt P09769)
[37] = biological target: BTK (human) (UniProt Q06187)
[38] = biological target: HIPK2 (human) (UniProt Q9H2X6)
[39] = biological target: PRKCB1 (human) (UniProt P05771)
[40] = biological target: NEK4 (human) (UniProt P51957)
[41] = biological target: CAMK2A (human) (UniProt Q9UQM7)
[42] = biological target: IRAK4 (human) (UniProt Q9NWZ3)

Chain of MAP3K2 (human) (Q9Y2U5 whole entry, looked up): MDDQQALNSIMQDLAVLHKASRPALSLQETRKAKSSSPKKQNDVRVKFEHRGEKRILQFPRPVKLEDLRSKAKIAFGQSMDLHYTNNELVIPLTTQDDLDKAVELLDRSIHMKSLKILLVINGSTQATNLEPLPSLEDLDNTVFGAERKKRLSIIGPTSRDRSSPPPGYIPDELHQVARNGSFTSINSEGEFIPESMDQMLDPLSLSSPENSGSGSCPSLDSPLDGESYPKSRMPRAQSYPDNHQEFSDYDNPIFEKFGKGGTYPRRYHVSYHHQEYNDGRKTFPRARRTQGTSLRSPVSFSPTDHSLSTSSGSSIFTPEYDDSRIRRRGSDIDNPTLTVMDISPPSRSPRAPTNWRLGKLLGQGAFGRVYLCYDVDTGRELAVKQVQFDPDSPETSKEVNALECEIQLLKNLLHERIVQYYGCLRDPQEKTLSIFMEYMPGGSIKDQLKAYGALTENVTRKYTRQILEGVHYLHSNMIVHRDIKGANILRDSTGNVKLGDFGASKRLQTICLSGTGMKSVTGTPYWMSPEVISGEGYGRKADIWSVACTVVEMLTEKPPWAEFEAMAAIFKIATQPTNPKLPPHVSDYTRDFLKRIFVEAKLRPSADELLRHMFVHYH
Chain of PRKCB1 (human) (P05771 whole entry, looked up): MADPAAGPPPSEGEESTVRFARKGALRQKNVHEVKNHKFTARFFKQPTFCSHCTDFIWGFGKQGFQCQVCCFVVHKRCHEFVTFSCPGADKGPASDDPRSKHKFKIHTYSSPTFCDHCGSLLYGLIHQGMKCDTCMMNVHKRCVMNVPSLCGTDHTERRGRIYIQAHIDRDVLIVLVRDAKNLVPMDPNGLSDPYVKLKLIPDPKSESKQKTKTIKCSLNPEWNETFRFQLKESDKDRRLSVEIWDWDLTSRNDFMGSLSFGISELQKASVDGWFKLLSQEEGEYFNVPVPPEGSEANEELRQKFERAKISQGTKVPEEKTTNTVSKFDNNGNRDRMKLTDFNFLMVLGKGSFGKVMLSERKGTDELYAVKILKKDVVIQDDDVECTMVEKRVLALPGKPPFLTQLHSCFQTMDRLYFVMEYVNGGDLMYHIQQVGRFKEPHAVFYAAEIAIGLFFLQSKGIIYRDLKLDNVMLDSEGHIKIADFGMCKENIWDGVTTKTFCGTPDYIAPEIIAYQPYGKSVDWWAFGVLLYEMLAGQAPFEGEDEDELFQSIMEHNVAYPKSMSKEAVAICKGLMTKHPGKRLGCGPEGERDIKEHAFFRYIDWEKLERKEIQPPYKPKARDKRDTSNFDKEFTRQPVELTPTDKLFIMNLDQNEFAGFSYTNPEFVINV
Chain of PRKCI (human) (P41743 whole entry, looked up): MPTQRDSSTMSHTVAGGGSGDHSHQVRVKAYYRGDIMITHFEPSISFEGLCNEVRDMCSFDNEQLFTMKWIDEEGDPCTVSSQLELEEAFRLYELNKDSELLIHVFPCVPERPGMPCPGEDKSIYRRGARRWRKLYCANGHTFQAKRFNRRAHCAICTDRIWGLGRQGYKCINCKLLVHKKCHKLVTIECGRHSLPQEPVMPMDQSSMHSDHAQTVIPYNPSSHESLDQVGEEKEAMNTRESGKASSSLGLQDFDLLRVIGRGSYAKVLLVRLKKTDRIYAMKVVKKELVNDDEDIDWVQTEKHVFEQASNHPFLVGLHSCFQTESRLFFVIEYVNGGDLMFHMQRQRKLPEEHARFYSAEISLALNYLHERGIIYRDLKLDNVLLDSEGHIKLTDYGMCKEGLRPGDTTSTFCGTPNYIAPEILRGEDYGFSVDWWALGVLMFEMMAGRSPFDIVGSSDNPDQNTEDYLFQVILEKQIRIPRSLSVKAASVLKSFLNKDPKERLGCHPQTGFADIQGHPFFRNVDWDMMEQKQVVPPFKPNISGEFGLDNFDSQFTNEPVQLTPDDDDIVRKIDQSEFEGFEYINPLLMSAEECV
Chain of PAK4 (human) (O96013 whole entry, looked up): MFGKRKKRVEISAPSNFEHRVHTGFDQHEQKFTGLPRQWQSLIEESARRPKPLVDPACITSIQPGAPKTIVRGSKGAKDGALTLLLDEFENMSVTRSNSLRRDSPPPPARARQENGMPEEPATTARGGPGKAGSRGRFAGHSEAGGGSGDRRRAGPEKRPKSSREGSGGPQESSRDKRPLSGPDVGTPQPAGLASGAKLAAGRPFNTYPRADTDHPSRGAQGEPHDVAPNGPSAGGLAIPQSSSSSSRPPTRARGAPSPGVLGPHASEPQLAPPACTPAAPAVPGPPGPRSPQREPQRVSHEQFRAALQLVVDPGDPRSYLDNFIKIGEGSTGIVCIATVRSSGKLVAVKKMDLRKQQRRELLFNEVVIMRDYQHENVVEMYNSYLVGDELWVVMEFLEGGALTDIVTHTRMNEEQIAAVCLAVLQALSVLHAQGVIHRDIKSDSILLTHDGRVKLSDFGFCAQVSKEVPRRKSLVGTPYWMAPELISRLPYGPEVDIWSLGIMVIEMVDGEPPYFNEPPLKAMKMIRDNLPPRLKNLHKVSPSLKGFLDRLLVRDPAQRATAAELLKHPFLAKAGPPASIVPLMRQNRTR
Chain of CDK5 CDK5R1 p25 (human) (Q00535 whole entry, looked up): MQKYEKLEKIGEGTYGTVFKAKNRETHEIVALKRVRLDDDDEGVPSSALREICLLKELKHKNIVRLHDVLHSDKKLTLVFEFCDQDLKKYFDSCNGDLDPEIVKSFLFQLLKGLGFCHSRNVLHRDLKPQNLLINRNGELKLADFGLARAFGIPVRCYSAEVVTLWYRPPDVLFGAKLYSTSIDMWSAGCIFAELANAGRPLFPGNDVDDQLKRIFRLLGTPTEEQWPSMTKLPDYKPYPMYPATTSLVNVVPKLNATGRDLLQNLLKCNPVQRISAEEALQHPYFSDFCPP
Chain of CDK5 CDK5R1 p25 (human) (Q15078 whole entry, looked up): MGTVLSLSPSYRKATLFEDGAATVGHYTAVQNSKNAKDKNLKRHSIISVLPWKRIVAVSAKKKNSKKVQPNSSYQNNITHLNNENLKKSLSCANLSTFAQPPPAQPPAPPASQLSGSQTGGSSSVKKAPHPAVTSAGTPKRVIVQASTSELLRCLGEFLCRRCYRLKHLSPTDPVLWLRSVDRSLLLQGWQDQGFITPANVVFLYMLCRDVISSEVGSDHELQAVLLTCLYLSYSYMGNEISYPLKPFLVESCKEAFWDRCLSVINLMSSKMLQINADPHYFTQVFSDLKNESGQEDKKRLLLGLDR
Chain of ABL2 (human) (P42684 whole entry, looked up): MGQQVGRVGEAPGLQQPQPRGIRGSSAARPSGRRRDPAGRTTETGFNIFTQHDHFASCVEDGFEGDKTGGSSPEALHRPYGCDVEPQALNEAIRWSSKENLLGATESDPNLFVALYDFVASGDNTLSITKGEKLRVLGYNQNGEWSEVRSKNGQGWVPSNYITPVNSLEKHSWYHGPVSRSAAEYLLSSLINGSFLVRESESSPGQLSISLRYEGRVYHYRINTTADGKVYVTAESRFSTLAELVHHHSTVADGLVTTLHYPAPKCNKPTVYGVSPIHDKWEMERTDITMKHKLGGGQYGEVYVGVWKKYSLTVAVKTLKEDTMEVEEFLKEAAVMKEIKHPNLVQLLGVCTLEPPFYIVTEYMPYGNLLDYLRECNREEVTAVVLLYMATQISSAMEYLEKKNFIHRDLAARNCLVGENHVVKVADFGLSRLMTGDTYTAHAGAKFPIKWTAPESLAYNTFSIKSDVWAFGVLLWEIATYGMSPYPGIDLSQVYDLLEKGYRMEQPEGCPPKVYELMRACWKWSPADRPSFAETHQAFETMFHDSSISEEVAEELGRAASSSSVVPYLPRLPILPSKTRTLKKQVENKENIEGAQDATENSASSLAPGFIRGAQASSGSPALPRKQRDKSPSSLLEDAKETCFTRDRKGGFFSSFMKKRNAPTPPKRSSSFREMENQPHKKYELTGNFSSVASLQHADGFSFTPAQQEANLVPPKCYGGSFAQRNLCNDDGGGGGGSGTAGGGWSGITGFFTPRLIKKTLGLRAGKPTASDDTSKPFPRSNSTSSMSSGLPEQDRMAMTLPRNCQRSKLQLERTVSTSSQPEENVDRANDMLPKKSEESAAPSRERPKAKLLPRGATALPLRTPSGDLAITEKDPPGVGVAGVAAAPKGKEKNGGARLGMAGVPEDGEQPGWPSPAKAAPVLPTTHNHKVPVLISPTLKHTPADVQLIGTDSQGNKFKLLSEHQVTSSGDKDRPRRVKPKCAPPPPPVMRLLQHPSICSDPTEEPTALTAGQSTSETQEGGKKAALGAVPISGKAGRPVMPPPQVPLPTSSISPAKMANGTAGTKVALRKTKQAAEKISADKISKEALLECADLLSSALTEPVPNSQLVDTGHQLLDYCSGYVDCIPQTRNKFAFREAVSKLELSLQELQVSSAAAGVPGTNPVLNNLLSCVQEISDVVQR
Chain of MATK (human) (P42679 whole entry, looked up): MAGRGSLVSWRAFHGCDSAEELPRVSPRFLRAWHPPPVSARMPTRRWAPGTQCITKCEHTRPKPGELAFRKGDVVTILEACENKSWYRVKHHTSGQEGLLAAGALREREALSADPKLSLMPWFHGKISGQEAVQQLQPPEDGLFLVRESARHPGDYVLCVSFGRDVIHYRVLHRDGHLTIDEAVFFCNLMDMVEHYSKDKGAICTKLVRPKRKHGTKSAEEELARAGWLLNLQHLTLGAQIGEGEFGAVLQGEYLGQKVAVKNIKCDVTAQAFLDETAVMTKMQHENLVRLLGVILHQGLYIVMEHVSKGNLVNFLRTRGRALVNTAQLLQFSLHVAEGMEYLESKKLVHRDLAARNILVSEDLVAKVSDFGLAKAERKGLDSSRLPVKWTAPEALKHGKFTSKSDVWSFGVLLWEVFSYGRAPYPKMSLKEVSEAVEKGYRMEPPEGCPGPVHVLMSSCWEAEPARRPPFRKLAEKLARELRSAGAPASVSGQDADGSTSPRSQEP

## CCCCc1c(-c2ccc(OC)cc2)[nH]c2nccnc12
[1]
  residual activity: 92.9%
[2]
  residual activity: 56.9%
[3]
  residual activity: 102%
[4]
  residual activity: 41.3%
[5]
  residual activity: 72.8%
[6]
  residual activity: 97.6%
[7]
  residual activity: 92.5%
[8]
  residual activity: 90.9%
[9]
  residual activity: 94.1%
[10]
  residual activity: 116%
[11]
  residual activity: 99.7%
[12]
  residual activity: 98.6%
[13]
  residual activity: 87%
[14]
  residual activity: 99.4%
[15]
  residual activity: 70.5%
[16]
  residual activity: 94.4%
[17]
  residual activity: 67.9%
[18]
  residual activity: 95.6%
[19]
  residual activity: 83%
[20]
  residual activity: 95.4%
[21]
  residual activity: 101%
[22]
  residual activity: 105%
[23]
  residual activity: 103%
[24]
  residual activity: 45.7%
[25]
  residual activity: 74.2%
[26]
  residual activity: 96.8%
[27]
  residual activity: 103%
[28]
  residual activity: 96.8%
[29]
  residual activity: 91.5%
[30]
  residual activity: 83.6%
[31]
  residual activity: 78.5%
[32]
  residual activity: 107%
[33]
  residual activity: 92.8%
[34]
  residual activity: 88.3%
[35]
  residual activity: 82.2%
[36]
  residual activity: 57.1%
[37]
  residual activity: 64.7%
[38]
  residual activity: 109%
[39]
  residual activity: 99.4%
[40]
  residual activity: 81.3%
[41]
  residual activity: 100%
[42]
  residual activity: 163%

## CS(=O)(=O)CCNCc1ccc(-c2ccc3ncnc(Nc4ccc(OCc5cccc(F)c5)c(Cl)c4)c3c2)o1
[1]
  residual activity: 149%
[2]
  residual activity: 103%
[3]
  residual activity: 98%
[4]
  residual activity: 90.4%
[5]
  residual activity: 106%
[6]
  residual activity: 108%
[7]
  residual activity: 95.7%
[8]
  residual activity: 123%
[9]
  residual activity: 95.8%
[10]
  residual activity: 106%
[11]
  residual activity: 88.2%
[12]
  residual activity: 102%
[13]
  residual activity: 106%
[14]
  residual activity: 98.3%
[15]
  residual activity: 97.3%
[16]
  residual activity: 79.3%
[17]
  residual activity: 99.3%
[18]
  residual activity: 96.7%
[19]
  residual activity: 76.9%
[20]
  residual activity: 94.8%
[21]
  residual activity: 75.9%
[22]
  residual activity: 98.8%
[23]
  residual activity: 101%
[24]
  residual activity: 84.7%
[25]
  residual activity: 92.5%
[26]
  residual activity: 90.7%
[27]
  residual activity: 100%
[28]
  residual activity: 106%
[29]
  residual activity: 105%
[30]
  residual activity: 96.7%
[31]
  residual activity: 94.8%
[32]
  residual activity: 89.9%
[33]
  residual activity: 103%
[34]
  residual activity: 104%
[35]
  residual activity: 105%
[36]
  residual activity: 84.8%
[37]
  residual activity: 103%
[38]
  residual activity: 104%
[39]
  residual activity: 93.5%
[40]
  residual activity: 98.1%
[41]
  residual activity: 98.6%
[42]
  residual activity: 91.5%

## N#Cc1c[nH]c2c[nH]/c(=N\Cc3cccnc3)cc2/c1=N\c1ccc(F)c(Cl)c1
[1]
  residual activity: 91.6%
[2]
  residual activity: 97.3%
[3]
  residual activity: 101%
[4]
  residual activity: 78.3%
[5]
  residual activity: 94.7%
[6]
  residual activity: 87.3%
[7]
  residual activity: 124%
[8]
  residual activity: 81.2%
[9]
  residual activity: 95.5%
[10]
  residual activity: 98.5%
[11]
  residual activity: 80%
[12]
  residual activity: 91.5%
[13]
  residual activity: 95.2%
[14]
  residual activity: 99.1%
[15]
  residual activity: 87.4%
[16]
  residual activity: 111%
[17]
  residual activity: 94.5%
[18]
  residual activity: 100%
[19]
  residual activity: 86.6%
[20]
  residual activity: 52.8%
[21]
  residual activity: 95.9%
[22]
  residual activity: 105%
[23]
  residual activity: 99.2%
[24]
  residual activity: 93.6%
[25]
  residual activity: 103%
[26]
  residual activity: 105%
[27]
  residual activity: 88%
[28]
  residual activity: 104%
[29]
  residual activity: 91.1%
[30]
  residual activity: 106%
[31]
  residual activity: 95.7%
[32]
  residual activity: 85.4%
[33]
  residual activity: 95.2%
[34]
  residual activity: 96.4%
[35]
  residual activity: 84%
[36]
  residual activity: 84.5%
[37]
  residual activity: 98.3%
[38]
  residual activity: 93.2%
[39]
  residual activity: 104%
[40]
  residual activity: 71.7%
[41]
  residual activity: 105%
[42]
  residual activity: 100%
